{"source": "paper PMC11428215", "about": "“Unveiling a New Antimicrobial Peptide with Efficacy against P. aeruginosa and K. pneumoniae from Mangrove-Derived Paenibacillus thiaminolyticus NNS5-6 and Genomic Analysis” (Antibiotics, 2024)", "key": {"P. aeruginosa TISTR 357 [1]": {"tested_on": "P. aeruginosa TISTR 357", "type": "cell-based, Pseudomonas aeruginosa", "conditions": "TISTR 357, 24 h", "experimental": "The MIC and MBC of the purified AMP were determined using the broth microdilution method following the guidance provided by the Clinical and Laboratory Standards Institute (CLSI). P. aeruginosa TISTR 357 and K. pneumoniae TISTR 1383 were cultured on MH agar and incubated at 37 °C for 18 h. A single colony of the tested bacteria was suspended in 0.85% NaCl until the suspension turbidity reached an OD of 0.1 at 625 nm. The cells were then diluted to 5 × 10^6 CFU/mL using cation-adjusted Mueller Hinton broth (CAMHB). The diluted cell suspension of 10 µL was transferred into each well of a 96-well plate with a final volume of 100 µL per well. The AMP was added to achieve final concentrations ranging from 0.125 to 64 µg/mL. Colistin was used as the positive control, while antibiotic-free samples were used as negative controls. The 96-well plate was incubated at 37 °C for 24 h. Each strain was tested in triplicate. […] Subsequently, 100 µL of each dilution was spread on MH agar and then incubated at 37 °C for 24 h. The MBC was identified as the lowest concentration at which no bacterial colony growth was observed on the agar plate."}, "P. aeruginosa TISTR 357 [2]": {"tested_on": "P. aeruginosa TISTR 357", "experiment": "Stability against pH, residual antibacterial activity", "type": "physicochemical, Pseudomonas aeruginosa", "conditions": "neutralized before assay, AMP 16 µg/mL, agar well diffusion read-out, % of non-treated AMP, mean ± SD, n = 3", "procedure": "(§1) The AMP was dissolved in sterile purified water and adjusted a final concentration to 16 µg/mL. The sensitivity of the AMP to temperatures of 37, 40, 50, 60, 80, and 100 °C, as well as autoclaving at 121 °C for 15 and 30 min was evaluated. The sensitivity of the AMP to proteolytic enzymes with different digesting characteristics was studied by incubating with a concentration of 1 mg/mL of proteinase K, trypsin, and α-chymotrypsin (Sigma-Aldrich, Warren, MI, USA). The compatibility of the AMP with surfactants was evaluated by exposing the AMP to 1% SDS or 1% Triton X-100 (AppliChem GmbH, Darmstadt, Germany). The degradation of the AMP under various pH conditions, including physiological and extended alkaline conditions, was evaluated by adjusting the pH of the solution to 1.2, 4.5, 6.8, 7.4, 8.0, 10.0, 12.0, and 14.0. After incubation, the pH of the AMP solution was neutralized to the original pH before being assessed for antibacterial activity. The antibacterial assay against P. aeruginosa TISTR 357 was conducted using the agar well diffusion assay in triplicate. The stability profiles are presented as the percentage of the residual activity compared with the non-treatment conditions (mean ± SD), and statistical significance was determined by the Student’s t-test at a p-value < 0.05."}, "Proteinase K": {"target": "Proteinase K (Parengyodontium album, UniProt P06873)", "sequence (P06873 106-384)": "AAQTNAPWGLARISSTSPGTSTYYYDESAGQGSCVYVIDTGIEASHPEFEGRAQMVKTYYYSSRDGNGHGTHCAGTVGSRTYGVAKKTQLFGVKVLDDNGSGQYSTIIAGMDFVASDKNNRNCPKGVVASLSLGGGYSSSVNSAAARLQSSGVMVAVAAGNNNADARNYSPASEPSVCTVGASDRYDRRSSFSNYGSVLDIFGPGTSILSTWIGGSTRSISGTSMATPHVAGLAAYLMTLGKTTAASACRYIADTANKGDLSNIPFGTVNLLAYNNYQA", "conditions": "Proteinase K 1 mg/mL, AMP 16 µg/mL, agar well diffusion read-out, % of non-treated AMP, mean ± SD, n = 3", "procedure": "as §1"}, "P. aeruginosa TISTR 357 [3]": {"tested_on": "P. aeruginosa TISTR 357", "experiment": "Stability against temperatures, residual antibacterial activity", "type": "physicochemical, Pseudomonas aeruginosa", "conditions": "AMP 16 µg/mL, agar well diffusion read-out, % of non-treated AMP, mean ± SD, n = 3", "procedure": "as §1"}}, "note": "Read-outs that look alike come from different tables or passages of the source. No end group written: not given here."}
{"sequence": "VKGDGGPGTVYTM [NNS5-6 AMP]", "values": [{"measurement": "MBC", "setting": "P. aeruginosa TISTR 357 [1]", "value": 4, "unit": "µg/mL"}, {"measurement": "MIC", "setting": "P. aeruginosa TISTR 357 [1]", "value": 4, "unit": "µg/mL"}, {"measurement": "% Residual Activity of NNS5-6 AMP against P. aeruginosa TISTR 357", "setting": "P. aeruginosa TISTR 357 [2]; pH 1.2, 1 h", "value": "89.62 ± 1.85", "unit": "%"}, {"measurement": "% Residual Activity of NNS5-6 AMP against P. aeruginosa TISTR 357", "setting": "P. aeruginosa TISTR 357 [2]; pH 1.2, 6 h", "value": "83.83 ± 1.72", "unit": "%"}, {"measurement": "% Residual Activity of NNS5-6 AMP against P. aeruginosa TISTR 357", "setting": "P. aeruginosa TISTR 357 [2]; pH 1.2, 12 h", "value": "81.14 ± 1.71", "unit": "%"}, {"measurement": "% Residual Activity of NNS5-6 AMP against P. aeruginosa TISTR 357", "setting": "P. aeruginosa TISTR 357 [2]; pH 4.5, 1 h", "value": "97.31 ± 0.33", "unit": "%"}, {"measurement": "% Residual Activity of NNS5-6 AMP against P. aeruginosa TISTR 357", "setting": "P. aeruginosa TISTR 357 [2]; pH 4.5, 6 h", "value": "95.69 ± 1.75", "unit": "%"}, {"measurement": "% Residual Activity of NNS5-6 AMP against P. aeruginosa TISTR 357", "setting": "P. aeruginosa TISTR 357 [2]; pH 4.5, 12 h", "value": "95.62 ± 1.19", "unit": "%"}, {"measurement": "% Residual Activity of NNS5-6 AMP against P. aeruginosa TISTR 357", "setting": "P. aeruginosa TISTR 357 [2]; pH 6.8, 1 h", "value": "97.31 ± 3.33", "unit": "%"}, {"measurement": "% Residual Activity of NNS5-6 AMP against P. aeruginosa TISTR 357", "setting": "P. aeruginosa TISTR 357 [2]; pH 6.8, 6 h", "value": "96.46 ± 0.57", "unit": "%"}, {"measurement": "% Residual Activity of NNS5-6 AMP against P. aeruginosa TISTR 357", "setting": "P. aeruginosa TISTR 357 [2]; pH 6.8, 12 h", "value": "96.00 ± 0.57", "unit": "%"}, {"measurement": "% Residual Activity of NNS5-6 AMP against P. aeruginosa TISTR 357", "setting": "P. aeruginosa TISTR 357 [2]; pH 7.4, 1 h", "value": "98.65 ± 0.58", "unit": "%"}, {"measurement": "% Residual Activity of NNS5-6 AMP against P. aeruginosa TISTR 357", "setting": "P. aeruginosa TISTR 357 [2]; pH 7.4, 6 h", "value": "98.18 ± 1.15", "unit": "%"}, {"measurement": "% Residual Activity of NNS5-6 AMP against P. aeruginosa TISTR 357", "setting": "P. aeruginosa TISTR 357 [2]; pH 7.4, 12 h", "value": "98.48 ± 0.66", "unit": "%"}, {"measurement": "% Residual Activity of NNS5-6 AMP against P. aeruginosa TISTR 357", "setting": "P. aeruginosa TISTR 357 [2]; pH 8.0, 1 h", "value": "99.23 ± 1.15", "unit": "%"}, {"measurement": "% Residual Activity of NNS5-6 AMP against P. aeruginosa TISTR 357", "setting": "P. aeruginosa TISTR 357 [2]; pH 8.0, 6 h", "value": "97.22 ± 0.98", "unit": "%"}, {"measurement": "% Residual Activity of NNS5-6 AMP against P. aeruginosa TISTR 357", "setting": "P. aeruginosa TISTR 357 [2]; pH 8.0, 12 h", "value": "98.48 ± 0.87", "unit": "%"}, {"measurement": "% Residual Activity of NNS5-6 AMP against P. aeruginosa TISTR 357", "setting": "P. aeruginosa TISTR 357 [2]; pH 10.0, 1 h", "value": "98.85 ± 1.20", "unit": "%"}, {"measurement": "% Residual Activity of NNS5-6 AMP against P. aeruginosa TISTR 357", "setting": "P. aeruginosa TISTR 357 [2]; pH 10.0, 6 h", "value": "97.42 ± 0.82", "unit": "%"}, {"measurement": "% Residual Activity of NNS5-6 AMP against P. aeruginosa TISTR 357", "setting": "P. aeruginosa TISTR 357 [2]; pH 10.0, 12 h", "value": "98.10 ± 1.44", "unit": "%"}, {"measurement": "% Residual Activity of NNS5-6 AMP against P. aeruginosa TISTR 357", "setting": "P. aeruginosa TISTR 357 [2]; pH 12.0, 1 h", "value": "94.31 ± 0.68", "unit": "%"}, {"measurement": "% Residual Activity of NNS5-6 AMP against P. aeruginosa TISTR 357", "setting": "P. aeruginosa TISTR 357 [2]; pH 12.0, 6 h", "value": "93.40 ± 0.78", "unit": "%"}, {"measurement": "% Residual Activity of NNS5-6 AMP against P. aeruginosa TISTR 357", "setting": "P. aeruginosa TISTR 357 [2]; pH 12.0, 12 h", "value": "90.10 ± 2.38", "unit": "%"}, {"measurement": "% Residual Activity of NNS5-6 AMP against P. aeruginosa TISTR 357", "setting": "P. aeruginosa TISTR 357 [2]; pH 14.0, 1 h", "value": "90.77 ± 0.88", "unit": "%"}, {"measurement": "% Residual Activity of NNS5-6 AMP against P. aeruginosa TISTR 357", "setting": "P. aeruginosa TISTR 357 [2]; pH 14.0, 6 h", "value": "84.40 ± 1.15", "unit": "%"}, {"measurement": "% Residual Activity of NNS5-6 AMP against P. aeruginosa TISTR 357", "setting": "P. aeruginosa TISTR 357 [2]; pH 14.0, 12 h", "value": "79.05 ± 1.75", "unit": "%"}, {"measurement": "% Residual Activity of NNS5-6 AMP against P. aeruginosa TISTR 357", "setting": "Proteinase K; 1 h", "value": "96.08 ± 3.41", "unit": "%"}, {"measurement": "% Residual Activity of NNS5-6 AMP against P. aeruginosa TISTR 357", "setting": "Proteinase K; 6 h", "value": "86.58 ± 1.22", "unit": "%"}, {"measurement": "% Residual Activity of NNS5-6 AMP against P. aeruginosa TISTR 357", "setting": "Proteinase K; 12 h", "value": "83.62 ± 1.34", "unit": "%"}, {"measurement": "% Residual Activity of NNS5-6 AMP against P. aeruginosa TISTR 357", "setting": "P. aeruginosa TISTR 357 [3]; 37 °C, 1 h", "value": "99.39 ± 1.98", "unit": "%"}, {"measurement": "% Residual Activity of NNS5-6 AMP against P. aeruginosa TISTR 357", "setting": "P. aeruginosa TISTR 357 [3]; 37 °C, 6 h", "value": "99.39 ± 0.61", "unit": "%"}, {"measurement": "% Residual Activity of NNS5-6 AMP against P. aeruginosa TISTR 357", "setting": "P. aeruginosa TISTR 357 [3]; 37 °C, 12 h", "value": "99.69 ± 0.95", "unit": "%"}, {"measurement": "% Residual Activity of NNS5-6 AMP against P. aeruginosa TISTR 357", "setting": "P. aeruginosa TISTR 357 [3]; 40 °C, 1 h", "value": "99.80 ± 0.94", "unit": "%"}, {"measurement": "% Residual Activity of NNS5-6 AMP against P. aeruginosa TISTR 357", "setting": "P. aeruginosa TISTR 357 [3]; 40 °C, 6 h", "value": "99.19 ± 0.93", "unit": "%"}]}
